Test results reported in US20260060928A1, “TALC-FREE ACTIVE INGREDIENT COATING” (Hermes Pharma GmbH, priority 2022, published 2026).
Values after ≈ are worked out from the molar mass of the structure shown. Structures can show the parent of a compound that is named as a salt.

Assay: Solubility of the active ingredient in water at room temperature
Type: physicochemical
Method: Further, unless specified otherwise, any measured provisions such as densities, solubulities, or the like, are understood to be measured at room temperature (i.e., 20±5° C. as defined by the European Pharmacopoeia or by the WHO guidance ‘Guidelines for the Storage of Essential Medicines and Other Health Commodities’ (2003)).

Compound	solubility [µg/mL]	solubility in water at room temperature [µg/mL]
COc1ccc2[nH]cc(CCNC(C)=O)c2c1 [melatonin]	2000 (≈ 8.61 mM)	–
CNC[C@H](O)c1cccc(O)c1 [phenylephrine HCl]	≥ 100000	–
vitamin B12 [Vit. B12]	–	12500
